# According to patent US9150592B2, “Heterocyclic nuclear hormone receptor modulators” (AbbVie Inc., priority 2012, dated 2015):
# Assays:
# [1] = target: T1, Glucocorticoid Receptor (GR) (Homo sapiens, UniProt P04150); assay: GR Fluorescence Polarization Assay (PolarScreen Glucocorticoid Receptor Competitor Assay, Red); conditions: IC50 class ranges, read-out: GR binding
# T1 construct: purchased Invitrogen P2893
# T1 sequence (P04150 1-777): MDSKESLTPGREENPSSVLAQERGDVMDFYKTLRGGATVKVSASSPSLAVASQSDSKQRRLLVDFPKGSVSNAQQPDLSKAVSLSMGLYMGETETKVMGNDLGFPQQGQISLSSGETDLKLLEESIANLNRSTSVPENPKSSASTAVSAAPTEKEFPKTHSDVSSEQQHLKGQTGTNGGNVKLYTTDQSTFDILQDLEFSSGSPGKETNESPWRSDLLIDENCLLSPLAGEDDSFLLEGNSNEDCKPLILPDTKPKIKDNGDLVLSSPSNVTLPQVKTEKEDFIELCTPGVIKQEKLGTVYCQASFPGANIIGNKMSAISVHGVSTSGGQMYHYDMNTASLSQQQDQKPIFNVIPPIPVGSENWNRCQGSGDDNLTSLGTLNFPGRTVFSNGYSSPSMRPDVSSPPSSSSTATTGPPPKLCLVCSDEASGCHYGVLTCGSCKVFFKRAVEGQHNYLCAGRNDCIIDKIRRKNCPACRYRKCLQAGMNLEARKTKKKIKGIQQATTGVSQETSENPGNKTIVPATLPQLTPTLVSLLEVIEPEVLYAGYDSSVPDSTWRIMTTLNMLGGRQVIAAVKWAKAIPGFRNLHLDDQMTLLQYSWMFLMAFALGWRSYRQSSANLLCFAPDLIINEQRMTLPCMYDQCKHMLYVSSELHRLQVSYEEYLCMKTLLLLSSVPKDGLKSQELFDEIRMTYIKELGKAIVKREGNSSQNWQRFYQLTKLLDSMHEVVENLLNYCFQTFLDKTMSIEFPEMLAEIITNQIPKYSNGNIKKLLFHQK
# Procedure, shortened: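 Competitive fluorescence-polarization assay using a red fluorescent glucocorticoid tracer with human GR in kit buffer. Compounds serially diluted 1:4 in DMSO, incubated with tracer and GR overnight at 4° C, then polarization read.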
# [2] = system: IL-6 in A549 cells stimulated with IL-1β; assay: A549 Cell Assay to Measure Inflammation Markers (inhibition of IL-1β-induced IL-6); type: cell-based; conditions: Homo sapiens, intrinsic activity, Emax class ranges
# Procedure, shortened: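 Compound pre-incubated with A549 cells 1 h at 37 °C, then stimulated with IL-1β (1 ng/mL final, 0.1% DMSO). Supernatant IL-6 quantified by MSD immunoassay after a further incubation. IC50 and Emax derived.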
# [3] = A549, A549 Cell Assay to Measure Inflammation Markers
SMILES,IC50 [1],"Emax [2, 3]",Emax ([2]; A549 Cell Assay to Measure Inflammation Markers)
"CCn1nc(-c2ccccn2)c2c1NC(=O)CCC2c1ccc(Br)cc1C (centres unmarked) [AA.1, 4-(4-Bromo-2-methylphenyl)-1-ethyl-3-(pyridin-2-yl)-4,5,6,8-tetrahydropyrazolo[3,4-b]azepin-7(1H)-one]",< 100 nM,< 50%,–
"CCn1nc(-c2ccccn2)c2c1NCCCC2c1ccc(Br)cc1C (centres unmarked) [BB.1, 4-(4-bromo-2-methylphenyl)-1-ethyl-3-(pyridin-2-yl)-1,4,5,6,7,8-hexahydropyrazolo[3,4-b]azepine]",< 100 nM,> 70%,–
"Cn1nc(-c2ccccn2)c2c1NC(=O)CSC2c1ccc(Br)cc1Cl (centres unmarked) [C.2, 4-(4-bromo-2-chloro-phenyl)-1-methyl-3-(2-pyridyl)-4,8-dihydropyrazolo[3,4-e][1,4]thiazepin-7-one]",100 to 1000 nM,–,< 50%
"Cc1cc(Cl)ccc1C1SCCNc2c1c(-c1ccccn1)nn2C (centres unmarked) [D.1, 4-(4-chloro-2-methyl-phenyl)-1-methyl-3-(2-pyridyl)-4,6,7,8-tetrahydro-pyrazolo[3,4-e][1,4]thiazepine]",< 100 nM,> 60%,–
Cn1nc(-c2ccccn2)c2c1NCCSC2c1c(Cl)cccc1Cl (centres unmarked) [D.2],1000 to 10000 nM,< 50%,–
Cn1nc(-c2ccccn2)c2c1NCCSC2c1ccc(Cl)cc1C(F)(F)F (centres unmarked) [D.3],< 100 nM,< 50%,–
"Cc1nn(C)c2c1C(c1ccc(Cl)cc1Cl)SC(C)(C)CN2 (centres unmarked) [D.4, 4-(2,4-dichlorophenyl)-1,3,6,6-tetramethyl-7,8-dihydro-4H-pyrazolo[3,4-e][1,4]thiazepine]",< 100 nM,< 50%,–
COc1cc(Cl)ccc1C1SCCNc2c1c(-c1ccccn1)nn2C (centres unmarked) [D.5],< 100 nM,< 50%,–
CN(C)c1ccc(C2SCCNc3c2c(-c2ccccn2)nn3C)c(Cl)c1 (centres unmarked) [D.6],100 to 1000 nM,< 50%,–
Cn1nc(-c2ccccn2)c2c1NCCSC2c1ccncc1Cl (centres unmarked) [D.7],< 100 nM,< 50%,–
"Cn1nc(-c2ccccn2)c2c1NCCSC2c1ccc(Cl)cc1Cl (centres unmarked) [D.8, 4-(2,4-dichlorophenyl)-1-methyl-3-(2-pyridyl)-4,6,7,8-tetrahydropyrazolo[3,4-e][1,4]thiazepine]",< 100 nM,< 50%,–
Cc1ccc(C2SCCNc3c2c(-c2ccccn2)nn3C)c(C)c1 (centres unmarked) [D.9],< 100 nM,< 50%,–
COc1ccc(C2SCCNc3c2c(-c2ccccn2)nn3C)c(C)c1 (centres unmarked) [D.10],< 100 nM,< 50%,–
Cc1cc(F)ccc1C1SCCNc2c1c(-c1ccccn1)nn2C (centres unmarked) [D.11],< 100 nM,> 50%,–
Cc1cc(OC(F)(F)F)ccc1C1SCCNc2c1c(-c1ccccn1)nn2C (centres unmarked) [D.12],< 100 nM,< 50%,–
Cc1cc(Cl)ccc1C1SCCNc2nn(C)cc21 (centres unmarked) [D.13],1000 to 10000 nM,< 50%,–
Cc1ccccc1C1SCCNc2c1c(-c1ccccn1)nn2C (centres unmarked) [D.14],< 100 nM,< 50%,–
"Cn1nc(-c2ccc(Br)cn2)c2c1NCCSC2c1ccc(Cl)cc1Cl (centres unmarked) [D.15, 3-(5-bromo-2-pyridyl)-4-(2,4-dichlorophenyl)-1-methyl-4,6,7,8-tetrahydropyrazolo[3,4-e][1,4]thiazepine]",< 100 nM,< 50%,–
Cn1nc(-c2nccs2)c2c1NCCSC2c1ccc(Cl)cc1Cl (centres unmarked) [D.16],< 100 nM,< 50%,–
Cn1nc(-c2nccs2)c2c1NCC(C)(C)SC2c1ccc(Cl)cc1Cl (centres unmarked) [D.17],100 to 1000 nM,< 50%,–
Cn1nc(-c2ccncc2)c2c1NCCSC2c1ccc(Cl)cc1Cl (centres unmarked) [D.18],100 to 1000 nM,< 50%,–
Cc1cc(Cl)ccc1C1SCCNc2c1c(-c1cc(Br)ccn1)nn2C (centres unmarked) [D.19],< 100 nM,< 50%,–
Cc1ccc(C)c(C2SCCNc3c2c(-c2ccccn2)nn3C)c1 (centres unmarked) [D.20],< 100 nM,< 50%,–
Cc1cc(Cl)cnc1C1SCCNc2c1c(-c1ccccn1)nn2C (centres unmarked) [D.21],100 to 1000 nM,< 50%,–
COc1ccnc(-c2nn(C)c3c2C(c2ccc(Cl)cc2C)SCCN3)c1 (centres unmarked) [D.22],< 100 nM,< 50%,–
Cn1nc(-c2ccccn2)c2c1NCCSC2c1ccc(Cl)cc1 (centres unmarked) [D.23],100 to 1000 nM,< 50%,–

SMILES,IC50 [1],"Emax [2, 3]",Emax ([2]; A549 Cell Assay to Measure Inflammation Markers)
Cc1cc(Cl)ccc1C1SCCNc2c1c(-c1cc(Cl)ccn1)nn2C (centres unmarked) [D.24],< 100 nM,< 50%,–
"Cn1nc(-c2ccccn2)c2c1NCCSC2c1ccc(Br)cc1 (centres unmarked) [D.25, 4-(4-bromophenyl)-1-methyl-3-(2-pyridyl)-4,6,7,8-tetrahydropyrazolo[3,4-e][1,4]thiazepine]",100 to 1000 nM,< 50%,–
"Cc1cc(Br)sc1C1SCCNc2c1c(-c1ccccn1)nn2C (centres unmarked) [D.26, 4-(5-bromo-3-methyl-2-thienyl)-1-methyl-3-(2-pyridyl)-4,6,7,8-tetrahydropyrazolo[3,4-e][1,4]thiazepine]",< 100 nM,< 50%,–
"Cc1ccc(Br)cc1C1SCCNc2c1c(-c1ccccn1)nn2C (centres unmarked) [D.27, 4-(5-bromo-2-methyl-phenyl)-1-methyl-3-(2-pyridyl)-4,6,7,8-tetrahydropyrazolo[3,4-e][1,4]thiazepine]",< 100 nM,< 50%,–
COc1ccc(C)c(C2SCCNc3c2c(-c2ccccn2)nn3C)c1 (centres unmarked) [D.28],1000 to 10000 nM,< 50%,–
Cc1cc(-c2nn(C)c3c2C(c2ccc(Br)cc2C)SCCN3)on1 (centres unmarked) [D.29],< 100 nM,< 50%,–
"CCn1nc(-c2ccccn2)c2c1NCCSC2c1ccc(Br)cc1C (centres unmarked) [D.30, 4-(4-bromo-2-methyl-phenyl)-1-ethyl-3-(2-pyridyl)-4,6,7,8-tetrahydropyrazolo[3,4-e][1,4]thiazepine]",< 100 nM,> 70%,–
CN(C)c1ccc(-c2nn(C)c3c2C(c2ccc(Cl)cc2Cl)SCCN3)cc1 (centres unmarked) [D.31],1000 to 10000 nM,< 50%,–
Cn1nc(-c2ccccn2)c2c1NCC(C)(C)SC2c1ccc(Cl)cc1Cl (centres unmarked) [D.32],< 100 nM,< 50%,–
Cc1cccc(C2SCCNc3c2c(-c2ccccn2)nn3C)c1C (centres unmarked) [D.33],100 to 1000 nM,< 50%,–
"Cc1sc(Br)cc1C1SCCNc2c1c(-c1ccccn1)nn2C (centres unmarked) [D.34, 4-(5-bromo-2-methyl-3-thienyl)-1-methyl-3-(2-pyridyl)-4,6,7,8-tetrahydropyrazolo[3,4-e][1,4]thiazepine]",< 100 nM,< 50%,–
COc1cc(C2SCCNc3c2c(-c2ccccn2)nn3C)c(C)cc1Cl (centres unmarked) [D.35],1000 to 10000 nM,< 50%,–
Cn1nc(-c2ccccn2)c2c1NCCSC2Cc1ccccc1 (centres unmarked) [D.36],> 10000 nM,< 50%,–
"Cn1nc(-c2ccccn2)c2c1NCCSC2c1ccc(Cl)cc1Br (centres unmarked) [D.37, 4-(2-bromo-4-chloro-phenyl)-1-methyl-3-(2-pyridyl)-4,6,7,8-tetrahydropyrazolo[3,4-e][1,4]thiazepine]",< 100 nM,> 50%,–
Cn1nc(-c2ccccn2)c2c1NCCSC2c1ccc(Cl)cc1C1CC1 (centres unmarked) [D.38],< 100 nM,> 50%,–
Cn1nc(-c2ccccn2)c2c1NCCSC2c1ccc(Cl)cc1CF (centres unmarked) [D.39],< 100 nM,> 60%,–
Cc1ccc(Cl)cc1C1SCCNc2c1c(-c1ccccn1)nn2C (centres unmarked) [D.40],< 100 nM,< 50%,–
Cc1cc(C(F)(F)F)ccc1C1SCCNc2c1c(-c1ccccn1)nn2C (centres unmarked) [D.41],< 100 nM,< 50%,–
"Cc1cc(O)ccc1C1SCCNc2c1c(-c1ccccn1)nn2C (centres unmarked) [D.42, 3-methyl-4-[1-methyl-3-(2-pyridyl)-4,6,7,8-tetrahydropyrazolo[3,4-e][1,4]thiazepin-4-yl]phenol]",< 100 nM,> 50%,–
Cc1cc(-c2nn(C)c3c2C(c2ccc(Cl)cc2C)SCCN3)no1 (centres unmarked) [D.43],< 100 nM,< 50%,–
"Cc1cc(Br)ccc1C1SCCNc2onc(-c3ccccn3)c21 (centres unmarked) [D.44, 4-(4-bromo-2-methyl-phenyl)-3-(2-pyridyl)-4,6,7,8-tetrahydroisoxazolo-[5,4-e][1,4]thiazepine]",< 100 nM,< 50%,–
Cc1cc(Cl)ccc1C1SC(C)(C)CNc2c1c(C1CC1)nn2C (centres unmarked) [D.45],< 100 nM,> 60%,–
Cc1ccc(Cl)cc1C1SC(C)(C)CNc2c1c(C1CC1)nn2C (centres unmarked) [D.46],< 100 nM,< 50%,–
COc1cc(Cl)ccc1C1SC(C)(C)CNc2c1c(C1CC1)nn2C (centres unmarked) [D.47],100 to 1000 nM,< 50%,–
Cn1nc(C2CC2)c2c1NCC(C)(C)SC2c1ccc(Cl)cc1C(F)(F)F (centres unmarked) [D.48],100 to 1000 nM,< 50%,–
Cc1ccc(C)c(C2SC(C)(C)CNc3c2c(C2CC2)nn3C)c1 (centres unmarked) [D.49],< 100 nM,< 50%,–
